The term IC50 denotes the midpoint of a concentration-inhibition curve. A lower IC50 goes with greater potency. Usually half-life stands for the time in which the quantity being followed falls by half.

From ChEMBL document CHEMBL3751836, “Novel peptidomimetics related to gonadotropin-releasing hormone (GnRH)” (Medchemcomm, 2015) come the findings set out here.

Series [1] has as its target T1, Gonadotropin-releasing hormone receptor (Homo sapiens) (UniProt P30968).
T1 sequence (whole entry): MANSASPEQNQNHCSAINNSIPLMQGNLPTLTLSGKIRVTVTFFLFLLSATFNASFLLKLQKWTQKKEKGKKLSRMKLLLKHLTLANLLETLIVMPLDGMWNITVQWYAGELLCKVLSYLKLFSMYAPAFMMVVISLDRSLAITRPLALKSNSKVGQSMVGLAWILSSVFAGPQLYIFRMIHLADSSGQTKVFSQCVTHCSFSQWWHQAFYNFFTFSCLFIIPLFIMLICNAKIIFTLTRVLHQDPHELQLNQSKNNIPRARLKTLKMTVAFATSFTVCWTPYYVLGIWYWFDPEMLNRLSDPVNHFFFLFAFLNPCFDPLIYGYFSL
In words: (§1) Displacement of [125I]-DTyr6-His5-GnRH from human type 1 GnRH receptor expressed in HEK293 cell membranes after 16 to 19 hrs by gamma counting analysis. In general terms: Displacement assays read how much labelled ligand stays bound in the presence of the test substance.

For series [2], the target named is T2, Gonadotropin-releasing hormone receptor (Homo sapiens, UniProt P30968).
T2 sequence (P30968 whole entry): T1 sequence (whole entry)
Described as §1.

The nature of series [3]: Metabolic stability in rat plasma at 100 uM after 4 hrs by HPLC/mass spectrometric analysis relative to GnRH1. Type of series: ADME, cell-free. As to conditions: read-out: Stability.
Series [4] is described as follows: Metabolic stability in rat plasma assessed as half life at 100 uM by HPLC/mass spectrometric analysis. Format: ADME, cell-free.
The subject of another series is HEK293. In words: Antiproliferative activity against HEK293 cells expressing human type 1 GnRH receptor at 1 uM after 4 days by MTT assay. Format: functional, cell-based.
A short description of series [5]: Metabolic stability in rat plasma at 100 uM after 4 hrs by HPLC/mass spectrometric analysis relative to GnRH2. Type of series: ADME, cell-free. Particulars: read-out: Stability.

Calls of active or inactive are those of the source. The rule behind the calls is not given here.

Consider `CC(C)C[C@H](NC(=O)C1(NC(=O)[C@H](Cc2ccc(O)cc2)NC(=O)[C@H](CO)NC(=O)[C@H](Cc2c[nH]c3ccccc23)NC(=O)[C@H](Cc2c[nH]cn2)NC(=O)[C@@H]2CCC(=O)N2)CCCC1)C(=O)N[C@@H](CCCNC(=N)N)C(=O)N1CCC[C@H]1C(=O)NCC(N)=O`, for which the Activity result in series [1] is “Dose-dependent effect”. The same molecule gave an IC50 in series [2] of 589 nM.
Take `CC(C)C[C@H](NC(=O)CN1CN(c2ccccc2)C2(CCN(C(=O)[C@H](Cc3c[nH]c4ccccc34)NC(=O)[C@H](Cc3c[nH]cn3)NC(=O)[C@@H]3CCC(=O)N3)CC2)C1=O)C(=O)N[C@@H](CCCNC(=N)N)C(=O)N1CCC[C@H]1C(=O)NCC(N)=O`: the Activity entry in series [1] is “Dose-dependent effect”. Also, the IC50 in series [2] was 724 nM.
As to `CC(C)C[C@H](NC(=O)C1(NC(=O)[C@H](Cc2ccc(O)cc2)NC(=O)[C@H](CO)NC(=O)[C@H](Cc2c[nH]c3ccccc23)NC(=O)[C@H](Cc2c[nH]cn2)NC(=O)[C@@H]2CCC(=O)N2)CCCCC1)C(=O)N[C@@H](CCCNC(=N)N)C(=O)N1CCC[C@H]1C(=O)NCC(N)=O`, the remaining at 4 h, 100 µM in series [3] worked out at 15%. In addition, the half-life at 100 µM in series [4] is 3.96 h. Also, the Activity entry in series [1] was “Dose-dependent effect”. In series [2], this molecule gave an IC50 of 550 nM.
As for `NC(=O)CNC(=O)[C@H]1CCCN1C(=O)[C@H](Cc1ccc(O)cc1)NC(=O)[C@H](Cc1c[nH]c2ccccc12)NC(=O)C1(NC(=O)[C@@H](Cc2cnc[nH]2)NC(=O)[C@@H](CO)NC(=O)[C@@H](Cc2c[nH]c3ccccc23)NC(=O)[C@@H](Cc2c[nH]cn2)NC(=O)[C@H]2CCC(=O)N2)CCCC1`, in series [1], the Activity entry was “Dose-dependent effect”. This molecule also had an IC50 in series [2] of 282 nM.
For the molecule `CC(C)C[C@H](NC(=O)CNC(=O)[C@H](Cc1ccc(O)cc1)NC(=O)[C@H](CO)NC(=O)[C@H](Cc1c[nH]c2ccccc12)NC(=O)[C@H](Cc1cnc[nH]1)NC(=O)[C@@H]1CCC(=O)N1)C(=O)N[C@@H](CCCNC(=N)N)C(=O)N1CCC[C@H]1C(=O)NCC(N)=O` [GONADORELIN], in series [4], the half-life at 100 µM was 2.63 h.
Regarding `CCNC(=O)[C@@H]1CCCN1C(=O)[C@H](CCCNC(=N)N)NC(=O)[C@H](CC(C)C)NC(=O)[C@@H](CC(C)C)NC(=O)[C@H](Cc1ccc(O)cc1)NC(=O)[C@H](CO)NC(=O)[C@H](Cc1c[nH]c2ccccc12)NC(=O)[C@H](Cc1c[nH]cn1)NC(=O)[C@@H]1CCC(=O)N1`, in the series with HEK293, the result was Active.
As to `NC(=O)CNC(=O)[C@@H]1CCCN1C(=O)[C@@H](Cc1ccc(O)cc1)NC(=O)[C@@H](Cc1c[nH]c2ccccc12)NC(=O)C1(NC(=O)[C@H](Cc2cnc[nH]2)NC(=O)[C@H](CO)NC(=O)[C@H](Cc2c[nH]c3ccccc23)NC(=O)[C@H](Cc2c[nH]cn2)NC(=O)[C@@H]2CCC(=O)N2)CCCCC1`, the result in the series on HEK293 was Active. In series [5], the remaining at 4 h, 100 µM turned out to be 15%. Further, the Activity result in series [1] is “Dose-dependent effect”. In series [2], the IC50 was 407 nM.
Consider `NC(=O)CNC(=O)[C@H]1CCCN1C(=O)[C@H](Cc1ccc(O)cc1)NC(=O)[C@H](Cc1c[nH]c2ccccc12)NC(=O)C1(NC(=O)[C@@H](Cc2cnc[nH]2)NC(=O)[C@@H](CO)NC(=O)[C@@H](Cc2c[nH]c3ccccc23)NC(=O)[C@@H](Cc2c[nH]cn2)NC(=O)[C@H]2CCC(=O)N2)CCC1`, for which, in series [1], the Activity result was “Dose-dependent effect”. This molecule showed an IC50 in series [2] of 191 nM.
